Data reported in patent publication US9617222B1, “Alkynyl indazole derivative and use thereof” (SENJU PHARMACEUTICAL CO., LTD., priority 2014, dated 2017).
In brackets after ≈: the same amount, converted by molar mass.

Tested on: Human Retinal Microvascular Endothelial (hRMVE) Cells (hRMVEC)
Assay: Growth inhibition of hRMVE cells under VEGF stimulation (MTT assay)
Type: cell-based
Conditions: recombinant human VEGF, 48 hours, read-out: Cell Growth Inhibition Activity

| SMILES | IC50 [nM] |
| --- | --- |
| CNC(=O)c1ccccc1Sc1ccc2c(C#Cc3ccc(NC(=O)NCCOCCOCCN4CCOCC4)cc3)n[nH]c2c1 [Compound 46, N-methyl-2-[(3-{[4-(3-{2-[2-(2-morpholinoethoxy)ethoxy]ethyl}ureido)phenyl]ethynyl}-1H-indazol-6-yl)thio]benzamide] | 3.2 |
| CNC(=O)c1ccccc1Sc1ccc2c(C#Cc3ccc(NC(=O)NCCOCCOCCN)cc3)n[nH]c2c1 [Compound 43, 2-[(3-{[4-(3-{2-[2-(2-aminoethoxy)ethoxy]ethyl}ureido)phenyl]ethynyl}-1H-indazol-6-yl)thio]-N-methylbenzamide] | 4 |
| CNC(=O)c1ccccc1Sc1ccc2c(C#Cc3ccc(NC(=O)COCCOCCOCCOC)cc3)n[nH]c2c1 [Compound 20, N-{4-[(6-{[2-(methylcarbamoyl)phenyl]thio}-1H-indazol-3-yl)ethynyl]phenyl}-2,5,8,11-tetraoxatridecane-13-amide] | 1.7 |
| CNC(=O)c1ccccc1Sc1ccc2c(C#Cc3ccc(NC(=O)COCCOCCOCCOC)nc3)n[nH]c2c1 [Compound 38, N-{5-[(6-{[2-(methylcarbamoyl)phenyl]thio}-1H-indazol-3-yl)ethynyl]pyridine-2-yl}-2,5,8,11-tetraoxatridecane-13-amide] | 3.5 |
| CNC(=O)c1ccccc1Sc1ccc2c(C#Cc3cccc(NC(=O)NCCOCCOCCOC)c3)n[nH]c2c1 [Compound 3, 2-[(3-{[3-(3-{2-[2-(2-methoxyethoxy)ethoxy]ethyl}ureido)phenyl]ethynyl}-1H-indazol-6-yl)thio]-N-methylbenzamide] | 11 |
| CNC(=O)c1ccccc1Sc1ccc2c(C#Cc3cccc(NC(=O)OCCOCCOCCOC)c3)n[nH]c2c1 [Compound 13, 2-[2-(2-methoxyethoxy)ethoxy]ethyl {3-[(6-{[2-(methylcarbamoyl)phenyl]thio}-1H-indazol-3-yl)ethynyl]phenyl}carbamate] | 9.3 |
| CNC(=O)c1ccccc1Sc1ccc2c(C#Cc3cccc(NCCOCCOCCOC)c3)n[nH]c2c1 [Compound 25, 2-[(3-{[3-({2-[2-(2-methoxyethoxy)ethoxy]ethyl}amino)phenyl]ethynyl}-1H-indazol-6-yl)thio]-N-methylbenzamide] | 10 |
| CNC(=O)c1ccccc1Sc1ccc2c(C#Cc3ccc(NC(=O)NCCOCCOCCOC)nc3)n[nH]c2c1 [Compound 32, 2-[(3-{[6-(3-{2-[2-(2-methoxyethoxy)ethoxy]ethyl}ureido)pyridine-3-yl]ethynyl}-1H-indazol-6-yl)thio]-N-methylbenzamide] | 3.8 |

Tested on: not listed separately
Assay: Solubility test in 0.1% phosphate buffer solution (pH 7.0)
Type: physicochemical
Conditions: aqueous buffer, thermodynamic from solid; 0.1% phosphate buffer solution (pH 7.0), room temperature overnight
Experimental: The mixture was subjected to ultrasonic irradiation for 30 seconds, and then shaken at room temperature overnight. The resulting suspension was left at rest at room temperature for 30 minutes, then filtered through a chromatography disc (0.20 μm) to prepare a sample solution. The sample solution and the standard solution were analyzed by LC-MS (product name: ACQUITY UPLC H-CLASS SYSTEM and Xevo TQ-S, produced by Nihon Waters K.K.), and a solubility was calculated from the obtained peak area value by an external standard method.

| solubility [µg/mL] | SMILES |
| --- | --- |
| 3.3 (≈ 4.78 µM) | CNC(=O)c1ccccc1Sc1ccc2c(C#Cc3ccc(NC(=O)COCCOCCOCCOCCOCCOC)cc3)n[nH]c2c1 [Compound 22, N-{4-[(6-{[2-(methylcarbamoyl)phenyl]thio}-1H-indazol-3-yl)ethynyl]phenyl}-2,5,8,11,14,17-hexaoxanonadecane-19-amide] |
| 0.38 (≈ 0.601 µM) | CNC(=O)c1ccccc1Sc1ccc2c(C#Cc3ccc(NC(=O)OCCOCCOCCOCCOC)cc3)n[nH]c2c1 [Compound 17, 2,5,8,11-tetraoxatridecane-13-yl {4-[(6-{[2-(methylcarbamoyl)phenyl]thio}-1H-indazol-3-yl)ethynyl]phenyl}carbamate] |
| 16 (≈ 25.3 µM) | CNC(=O)c1ccccc1Sc1ccc2c(C#Cc3ccc(NC(=O)NCCOCCOCCOCCOC)cn3)n[nH]c2c1 [Compound 36, 2-{[3-({5-[3-(2,5,8,11-tetraoxatridecane-13-yl)ureido]pyridine-2-yl}ethynyl)-1H-indazol-6-yl]thio}-N-methylbenzamide] |
| 2.6 (≈ 3.84 µM) | CNC(=O)c1ccccc1Sc1ccc2c(C#Cc3ccc(NC(=O)NCCOCCOCCOCCOCCOC)nc3)n[nH]c2c1 [Compound 34, 2-{[3-({6-[3-(2,5,8,11,14-pentaoxahexadecane-16-yl)ureido]pyridine-3-yl}ethynyl)-1H-indazol-6-yl]thio}-N-methylbenzamide] |
| 0.31 (≈ 0.491 µM) | CNC(=O)c1ccccc1Sc1ccc2c(C#Cc3cccc(NC(=O)NCCOCCOCCOCCOC)c3)n[nH]c2c1 [Compound 4] |
| 2.5 (≈ 3.7 µM) | CNC(=O)c1ccccc1Sc1ccc2c(C#Cc3ccc(NC(=O)NCCOCCOCCOCCOCCOC)cc3)n[nH]c2c1 [Compound 10, 2-{[3-({4-[3-(2,5,8,11,14-pentaoxahexadecane-16-yl)ureido]phenyl}ethynyl)-1H-indazol-6-yl]thio}-N-methylbenzamide] |
| 9.9 (≈ 14.6 µM) | CNC(=O)c1ccccc1Sc1ccc2c(C#Cc3cncc(NC(=O)NCCOCCOCCOCCOCCOC)c3)n[nH]c2c1 [Compound 31, 2-{[3-({5-[3-(2,5,8,11,14-pentaoxahexadecane-16-yl)ureido]pyridine-3-yl}ethynyl)-1H-indazol-6-yl]thio}-N-methylbenzamide] |
| 0.58 (≈ 0.985 µM) | CNC(=O)c1ccccc1Sc1ccc2c(C#Cc3cncc(NC(=O)NCCOCCOCCOC)c3)n[nH]c2c1 [Compound 30, 2-[(3-{[5-(3-{2-[2-(2-methoxyethoxy)ethoxy]ethyl}ureido)pyridine-3-yl]ethynyl}-1H-indazol-6-yl)thio]-N-methylbenzamide] |
| 0.99 (≈ 1.46 µM) | CNC(=O)c1ccccc1Sc1ccc2c(C#Cc3cccc(NC(=O)NCCOCCOCCOCCOCCOC)c3)n[nH]c2c1 [Compound 5, 2-{[3-({3-[3-(2,5,8,11,14-pentaoxahexadecane-16-yl)ureido]phenyl}ethynyl)-1H-indazol-6-yl]thio}-N-methylbenzamide] |
| 0.86 (≈ 1.27 µM) | CNC(=O)c1ccccc1Sc1ccc2c(C#Cc3ccc(NC(=O)OCCOCCOCCOCCOCCOC)cc3)n[nH]c2c1 [Compound 18, 2,5,8,11,14-pentaoxahexadecane-16-yl {4-[(6-{[2-(methylcarbamoyl)phenyl]thio}-1H-indazol-3-yl)ethynyl]phenyl}carbamate] |
| 0.89 (≈ 1.41 µM) | CNC(=O)c1ccccc1Sc1ccc2c(C#Cc3ccc(NCCOCCOCCOCCOCCOC)cc3)n[nH]c2c1 [Compound 29, 2-{[3-({4-[(2,5,8,11,14-pentaoxahexadecane-16-yl)amino]phenyl}ethynyl)-1H-indazol-6-yl]thio}-N-methylbenzamide] |
| 0.52 (≈ 0.861 µM) | CNC(=O)c1ccccc1Sc1ccc2c(C#Cc3ccc(NC(=O)COCCOCCOCCOC)cn3)n[nH]c2c1 [Compound 41] |
| 1.2 (≈ 1.9 µM) | CNC(=O)c1ccccc1Sc1ccc2c(C#Cc3ccc(NC(=O)NCCOCCOCCOCCOC)cc3)n[nH]c2c1 [Compound 9, 2-{[3-({4-[3-(2,5,8,11-tetraoxatridecane-13-yl)ureido]phenyl}ethynyl)-1H-indazol-6-yl]thio}-N-methylbenzamide] |
| 29 (≈ 42.8 µM) | CNC(=O)c1ccccc1Sc1ccc2c(C#Cc3ccc(NC(=O)NCCOCCOCCOCCOCCOC)cn3)n[nH]c2c1 [Compound 37, 2-{[3-({5-[3-(2,5,8,11,14-pentaoxahexadecane-16-yl)ureido]pyridine-2-yl}ethynyl)-1H-indazol-6-yl]thio}-N-methylbenzamide] |
| 0.17 (≈ 0.289 µM) | CNC(=O)c1ccccc1Sc1ccc2c(C#Cc3ccc(NCCOCCOCCOCCOC)cc3)n[nH]c2c1 [Compound 28, 2-{[3-({4-[(2,5,8,11-tetraoxatridecane-13-yl)amino]phenyl}ethynyl)-1H-indazol-6-yl]thio}-N-methylbenzamide] |

| SMILES | solubility [µg/mL] |
| --- | --- |
| CNC(=O)c1ccccc1Sc1ccc2c(C#Cc3ccc(NC(=O)NCCOCCOCCN4CCOCC4)cc3)n[nH]c2c1 [Compound 46, N-methyl-2-[(3-{[4-(3-{2-[2-(2-morpholinoethoxy)ethoxy]ethyl}ureido)phenyl]ethynyl}-1H-indazol-6-yl)thio]benzamide] | 1.4 (≈ 2.18 µM) |
| CNC(=O)c1ccccc1Sc1ccc2c(C#Cc3ccc(NC(=O)NCCOCCOCCN)cc3)n[nH]c2c1 [Compound 43, 2-[(3-{[4-(3-{2-[2-(2-aminoethoxy)ethoxy]ethyl}ureido)phenyl]ethynyl}-1H-indazol-6-yl)thio]-N-methylbenzamide] | 32 (≈ 55.9 µM) |
